From patent US20120270237A9, “METHODS FOR THE IDENTIFICATION OF KINASE INTERACTING MOLECULES AND FOR THE PURIFICATION OF KINASE PROTEINS” (Cellzone AG, priority 2009, published 2012)

Key:
[1] = biological target: T1, ALK4 (Homo sapiens, UniProt P36896); test: Kinobeads competition binding, HL60 cell lysate; settings: 10 μM free compound
T1 construct: endogenous in cells; host or cells: HL60 cells
Experimental: (§1) To one aliquot of cell lysate 10 μM of the free compound (FIG. 3, CZC31326) was added and allowed to bind to proteins in the lysate. Then the affinity matrix with the immobilized compound (Example 1) was added to capture proteins that were not interacting with the previously added free compound. Beads were separated from the lysate and bead bound proteins were eluted in SDS sample buffer and subsequently separated by SDS-Polyacrylamide gel electrophoresis (FIG. 4). Suitable gel bands were cut out and subjected to in-gel proteolytic digestion with trypsin. The second lysate aliquot was processed identically, however no free compound was added (DMSO solvent control). Peptides originating from samples 1 and 2 were labeled with iTRAQ reagents (iTRAQ 114 and iTRAQ 117) and the combined samples were analyzed with a nano-flow liquid chromatography system coupled online to a tandem mass spectrometer (LC-MS/MS) experiment followed by iTRAQ reporter ion quantification in the MS/MS spectra (Ross et al., 2004. Mol. Cell. Proteomics 3(12):1154-1169). Further experimental protocols can be found in WO2006/134056 and a previous publication (Bantscheff et al., 2007. Nature Biotechnology 25, 1035-1044). Sepharose-beads with the immobilized compound (100 μl beads per pull-down experiment) were equilibrated in lysis buffer and incubated with a cell lysate sample containing 50 mg of protein on an end-over-end shaker (Roto Shake Genie, Scientific Industries Inc.) for 2 hours at 4° C. Beads were collected, transferred to Mobicol-columns (MoBiTech 10055) and washed with 10 ml lysis buffer containing 0.4% NP40 detergent, followed by 5 ml lysis buffer containing 0.2% detergent. To elute bound proteins, 60 μl 2×SDS sample buffer was added to the column. The column was incubated for 30 minutes at 50° C. and the eluate was transferred to a siliconized microfuge tube by centrifugation. Proteins were then alkylated with 108 mM iodoacetamid. Proteins were then separated by SDS-Polyacrylamide electrophoresis (SDS-PAGE). The peptide extracts of samples treated with 10 μM of free compound (CZC31326) and the solvent control (0.5% DMSO) were treated with different variants of the isobaric tagging reagent (iTRAQ Reagents Multiplex Kit, part number 4352135, Applied Biosystems, Foster City, Calif., USA). The iTRAQ reagents are a set of multiplexed, amine-specific, stable isotope reagents that can label peptides on amino groups in up to four different biological samples enabling simultaneous identification and quantitation of peptides. The iTRAQ reagents were used according to instructions provided by the manufacturer. The samples were resuspended in 10 μl 50 mM TEAB solution, pH 8.5 and 10 μl ethanol were added. The iTRAQ reagent was dissolved in 120 μl ethanol and 10 μl of reagent solution were added to the sample. The labeling reaction was performed at room temperature for one hour on a horizontal shaker and stopped by adding 5 μl of 100 mM TEAB and 100 mM glycine in water. The two labeled sampled were then combined, dried in a vacuum centrifuge and resuspended in 10 μl of 0.1% formic acid in water. Relative protein quantitation was performed using peak areas of iTRAQ reporter ion signals essentially as described in an earlier publication (Bantscheff et al., 2007. Nature Biotechnology 25, 1035-1044).

[2] = biological target: T2, GAK (Homo sapiens, UniProt O14976); test: Kinobeads competition binding, HL60 cell lysate; settings: 10 μM free compound
T2 sequence (O14976 1-1311): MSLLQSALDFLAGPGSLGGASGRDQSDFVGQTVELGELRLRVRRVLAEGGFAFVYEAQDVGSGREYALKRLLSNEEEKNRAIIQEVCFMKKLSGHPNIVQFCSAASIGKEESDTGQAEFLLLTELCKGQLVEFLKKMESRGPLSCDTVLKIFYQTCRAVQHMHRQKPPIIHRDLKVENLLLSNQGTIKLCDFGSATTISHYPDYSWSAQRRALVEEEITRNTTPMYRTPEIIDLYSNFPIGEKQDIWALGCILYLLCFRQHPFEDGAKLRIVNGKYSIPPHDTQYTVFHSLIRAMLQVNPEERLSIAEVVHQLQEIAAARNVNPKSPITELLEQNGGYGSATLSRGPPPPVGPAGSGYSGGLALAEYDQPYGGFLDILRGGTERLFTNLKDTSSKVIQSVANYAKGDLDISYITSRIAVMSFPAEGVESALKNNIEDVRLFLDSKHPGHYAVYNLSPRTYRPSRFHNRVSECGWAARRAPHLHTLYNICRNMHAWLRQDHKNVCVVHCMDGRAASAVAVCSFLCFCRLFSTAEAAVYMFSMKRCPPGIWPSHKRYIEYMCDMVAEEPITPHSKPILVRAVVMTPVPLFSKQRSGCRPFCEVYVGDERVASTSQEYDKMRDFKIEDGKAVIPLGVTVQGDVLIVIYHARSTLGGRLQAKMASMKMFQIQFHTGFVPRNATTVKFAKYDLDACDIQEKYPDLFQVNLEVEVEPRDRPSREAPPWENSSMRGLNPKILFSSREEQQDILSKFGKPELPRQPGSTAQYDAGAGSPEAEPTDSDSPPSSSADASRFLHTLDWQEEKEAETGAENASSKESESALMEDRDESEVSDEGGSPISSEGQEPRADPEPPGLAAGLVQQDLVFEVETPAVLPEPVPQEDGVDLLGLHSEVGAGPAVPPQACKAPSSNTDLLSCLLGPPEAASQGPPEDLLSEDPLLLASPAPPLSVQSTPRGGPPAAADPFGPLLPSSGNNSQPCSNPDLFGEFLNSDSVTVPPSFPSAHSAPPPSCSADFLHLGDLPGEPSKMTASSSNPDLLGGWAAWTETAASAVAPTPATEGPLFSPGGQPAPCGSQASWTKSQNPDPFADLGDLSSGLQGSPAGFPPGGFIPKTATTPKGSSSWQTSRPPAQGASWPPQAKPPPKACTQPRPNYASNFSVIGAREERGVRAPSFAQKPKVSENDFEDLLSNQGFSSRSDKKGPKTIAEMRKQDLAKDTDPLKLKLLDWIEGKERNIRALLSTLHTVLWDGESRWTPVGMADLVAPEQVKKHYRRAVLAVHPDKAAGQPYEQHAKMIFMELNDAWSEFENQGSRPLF
Experimental: as §1

T1 sequence (P36896 24-505): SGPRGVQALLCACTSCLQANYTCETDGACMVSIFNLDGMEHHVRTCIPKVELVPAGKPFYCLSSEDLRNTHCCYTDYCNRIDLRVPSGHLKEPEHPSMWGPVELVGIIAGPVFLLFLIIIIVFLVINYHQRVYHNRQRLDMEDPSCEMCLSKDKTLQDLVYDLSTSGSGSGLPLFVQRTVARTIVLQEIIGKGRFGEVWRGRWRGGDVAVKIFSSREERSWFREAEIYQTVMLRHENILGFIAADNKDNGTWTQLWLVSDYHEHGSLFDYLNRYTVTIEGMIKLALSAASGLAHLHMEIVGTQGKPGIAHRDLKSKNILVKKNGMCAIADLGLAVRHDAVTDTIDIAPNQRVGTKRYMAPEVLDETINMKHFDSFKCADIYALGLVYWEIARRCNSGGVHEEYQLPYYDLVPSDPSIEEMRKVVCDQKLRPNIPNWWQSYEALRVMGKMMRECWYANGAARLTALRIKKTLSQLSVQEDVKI

CS(=O)(=O)Nc1ccccc1Nc1nc(Nc2cccc(OCCN)c2)ncc1Cl [CZC31326, N-(2-(2-(3-(2-aminoethoxy)phenylamino)-5-chloropyrimidin-4-ylamino)phenyl)methanesulfonamide]
inhibition at 10 µM [1]: 94.5%
inhibition at 10 µM [2]: 97.9%
